Measurements taken from patent publication US7872027B2, “Low molecular weight Myc-max inhibitors” (University of Pittsburgh - Of the Commonwealth System of …, priority 2006, dated 2011).

Assays:
[1] = tested on: HL60 human promyelocytic leukemia cells; experiment: HL60 cell growth inhibition (trypan blue cell counts); format: cell-based
Description: Note that all structures shown herein are drawn in their Z-isoform and some bonds have been standardized. IC50's here, as well as below for in FIGS. 2 and 3, were calculated based upon dose-response profiles on day 5 following the addition of each compound.
HL60 human promyelocytic leukemia cells were grown in RPMI medium supplemented with 10% fetal calf serum, 100 U/ml penicillin G, and 100 μg/ml streptomycin (all from Mediatech, Inc., Herndon, Va.). Rat fibroblast lines were grown under similar conditions in Dulbecco's modified minimal essential medium. To determine the effects of Myc-Max compounds on HL60 cell growth, logarithmically growing cells (>90% viability) were resuspended in fresh medium. Four (4) ml (a total of 16,000 cells) were then seeded into 6-well plates in the presence of the indicated amount of Myc-Max compound. In all cases, 10058-F4 was included as a reference compound. Daily cell counts were performed manually in triplicate on a hemacytometer using trypan blue exclusion. Viabilities exceeded 85% throughout the course of the experiment.
Each compound was initially tested for its ability to inhibit the growth of the HL60 human promyelocytic leukemia cell line, which expresses high levels of c-Myc as a result of gene amplification (Park S—H, et al. Methods Mol Biol 2004; 261:161-165 (2004)). […]

c-Myc-Max complexes = target: T1, c-Myc-Max complexes (Homo sapiens, UniProt P01106); experiment: co-immunoprecipitation of c-Myc and Max from HL60 nuclear extracts; format: biochemical; conditions: 30° C. for 30 min
T1 construct: endogenous in cells; host or cells: HL60 nuclear extract
T1 sequence (P01106 whole entry, one chain of several): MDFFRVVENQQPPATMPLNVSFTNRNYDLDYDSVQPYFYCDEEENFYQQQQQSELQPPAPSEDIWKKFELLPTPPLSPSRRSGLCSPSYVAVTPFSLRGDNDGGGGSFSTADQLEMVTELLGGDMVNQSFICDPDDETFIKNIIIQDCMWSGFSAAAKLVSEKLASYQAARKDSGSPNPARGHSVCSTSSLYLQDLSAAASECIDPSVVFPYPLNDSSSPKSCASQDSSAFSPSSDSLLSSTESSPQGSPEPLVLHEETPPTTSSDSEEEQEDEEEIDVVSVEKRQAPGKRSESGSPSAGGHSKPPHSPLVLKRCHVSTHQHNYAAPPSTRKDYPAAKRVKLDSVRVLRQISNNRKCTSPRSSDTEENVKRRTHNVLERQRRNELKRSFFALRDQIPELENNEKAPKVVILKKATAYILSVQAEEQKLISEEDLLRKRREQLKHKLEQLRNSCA
Description: (§1) Equivalent amounts of nuclear extracts were incubated with the indicated concentrations of the compounds depicted in FIGS. 1-3. Following precipitation of the complexes with an anti-Max antibody, the total amount of associated c-Myc was detected by immunoblotting (top panel). As a control, the lower portion of the blot was probed with an anti-Max antibody (bottom panel). FIGS. 4B, 4C and 4D show EMSAs results. Recombinant c-Myc353-439 (which encodes the complete bHLH-ZIP dimerization domain) and full-length Max(S) were purified to homogeneity from E. coli and used at a final concentration of 60 nM in the presence of the indicated concentration of compound.
Nuclei from HL60 cells were prepared essentially as described previously (17). Briefly, approximately 4×10^7 washed nuclei were resuspended in 1 ml of ice cold buffer F, which contained 150 mM NaCl; 10 mM Tris-HCl, pH 7.1; 30 mM sodium pyrophosphate; 5 μM ZnCl2; 0.1% Nonidet P-40; 0.1 mM Na3VO4; 1 mM PMSF; 2.5 U/ml each of pepstatin, leupeptin, and approtinin. All reagents were from Sigma-Aldrich (St. Louis, Mo.). […]
10058-F4 analogs interfere directly with c-Myc-Max heterodimerization and DNA binding. […] To address this, the effect of each compound on c-Myc-Max association was determined in vitro by two different methods. […] The total amount of co-precipitating c-Myc protein was then assessed by immunoblotting. […]

c-Myc-Max(S) heterodimer = target: T2, c-Myc-Max(S) heterodimer (Homo sapiens, UniProt P01106); experiment: electrophoretic mobility shift assay (EMSA), E-box DNA binding; format: biochemical; conditions: 60 nM each protein, 10 nM oligonucleotide
T2 construct: human Myc residues 353-439 with a GGCD extension at the C terminus; His6 (TEV-cleavable) (cleaved yes); made in house; host or cells: E. coli BL21DE3(plysS) for c-Myc; E. coli M15(pRep4) for Max
T2 sequence (P01106 368-454, one chain of several): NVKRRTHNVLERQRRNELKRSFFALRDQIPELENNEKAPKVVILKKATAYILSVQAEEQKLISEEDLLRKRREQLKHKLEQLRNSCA
Description: as §1
Electrophoretic mobility shift Assays (EMSAs). Experiments were performed on 8% polyacrylamide:bis-acrylamide (80:1) gels in 0.5×TBE. […]
and was synthesized by Integrated DNA Technologies Inc (Coralville, Iowa). […] Data were analyzed with BioRad Quantity One software.
The second method used to gauge the effects of 10058-F4 and its analogs on c-Myc-Max complexes relied on the use of a simple, three component electrophoretic mobility shift assay (EMSA). […] The ability of the resultant heterodimer to bind a double-stranded target oligonucleotide containing a consensus E-box motif was then assessed by PAGE. […]

CCc1ccc(C=C2SC(=S)NC2=O)cc1 [Compound 10058-F4, (Z,E)-5-(4-ethylbenzylidene)-2-thioxothiazolidin-4-one]
IC50 ([1]; Homo sapiens, HL-60, 120 h, dose-response profiles on day 5 following addition of compound, read-out: ID50, HL60 cell growth): 51 µM
dissociation of c-Myc from Max (co-IP with anti-Max antibody) (c-Myc-Max complexes): promoted the dissociation of c-Myc from Max
inhibition of E-box DNA binding by c-Myc-Max(S) (c-Myc-Max(S) heterodimer): dose-dependent, although variable, inhibition

CC(C)c1ccc(/C=C2\SC(=S)N(CN3CCCCC3)C2=O)cc1 [Compound 28RH-NCN-1]
activity in HL60 cells compared with 10058-F4 ([1]; 10058-F4 in parallel): activities comparable to that of 10058-F4
